These are literature values, as cited in patent US12440441B2 (LIQMEDS WORLDWIDE LIMITED, priority 2021, dated 2025).

For one data set, the system named is calcium channel. To be noted: Stopher.

For `CCOC(=O)C1=C(COCCN)NC(C)=C(C(=O)OC)C1c1ccccc1Cl` (stereo not drawn) [Amlodipine besylate, amlodipine besylate], the solubility in ethanol entry (ethanol) is “sparingly soluble”. The solubility in water entry (water) is recorded as “slightly soluble”.

Consider `CCOC(=O)c1c(COCCN)nc(C)c(C(=O)OC)c1-c1ccccc1Cl` [Impurity A, Amlodipine Related Substance A], for which the “calcium antagonist activity relative to amlodipine” value with calcium channel was “does not show any significant calcium antagonist activity”.
